Experimental data published in patent US20210220331A1, “INHIBITORS OF IRES-MEDIATED PROTEIN SYNTHESIS” (The Regents of the University of California, priority 2016, published 2021).

Experiments:
human p27Kip1 IRES = assay: Dicistronic IRES mRNA reporter assay, p27Kip1 IRES; assay type: cell-based; conditions: LN229 cells
Method: (§1) Western blot and quantitative RT-PCR analyses were performed as previously described (19). For Western blotting, cells or tissues were lysed in RIPA (lysis) buffer containing protease inhibitor cocktail and phosSTOP phosphatase inhibitor cocktail (Roche) and extracts resolved by SDSPAGE. Proteins were transferred to PVDF membranes and incubated with the indicated antibodies. For IRES reporter assays, the indicated mRNA reporters were cotransfected into cells with pSVβ-galactosidase to normalize for transfection efficiency as described previously (16). Cells were harvested 18 h following transfection and Renilla, firefly and β-galactosidase activities determined using the Dual-Glo Luciferase and β-galactosidase assay systems (Promega).
(§2) (B) Schematic diagrams of the dicistronic constructs used in this study. […] Input and bound fractions were analyzed by immunoblotting using hnRNP A1 antibodies. […] Bound CCND1 or c-MYC RNAs were detected via RT-PCR. […]
(§3) Several dicistronic IRES mRNA reporter constructs were utilized, shown in FIG. 1B, in which the indicated IRES sequences were inserted within the intercistronic region. LN229 cells transiently transfected with these constructs were assayed for Renilla and firefly luciferase activities, which are readouts of cap-dependent and IRES-mediated translation initiation, respectively (16).

[1] = tested on: IRES from encephalomyocarditis virus; assay: Dicistronic IRES mRNA reporter assay, ECMV IRES; assay type: cell-based; conditions: LN229 cells
Method: as §1, §2, §3

[2] = tested on: LN229, LN18, LN428 and SF763 GBM lines; assay: Growth inhibition of GBM cell lines (XTT); assay type: cell-based
Method: (§4) Results are expressed as relative fold change in firefly (FF) luciferase activity and the mean and +S.D. are shown for three independent experiments. (B) Growth inhibition of GBM cell lines following 48 h culture in C11. Data represent mean±S.D. of three independent experiments. […] Control cell were treated with DMSO vehicle. Data are means±S.D., n=3. […] Percent apoptotic cells as determined via Annexin V staining are also shown below each graph. One of three experiments with similar results is shown.

[3] = tested on: LN229, LN18, LN428 and SF763 GBM lines; assay: Cell-cycle phase distribution and Annexin V apoptosis in four GBM lines; assay type: cell-based
Method: as §4, with “(B) Growth inhibition of GBM cell lines following 48 h culture in C11.” left out, “graph.” for “graph. One of three experiments with similar results is shown.”

[4] = tested on: cyclin D1, c-MYC and actin mRNAs; assay: Polysome analysis in LN229 cells; assay type: cell-based
Delta Max splicing = assay: Max exon 5 alternative splicing analysis (RT-PCR); assay type: cell-based; conditions: U87 cells stably expressing EGFRvIII
Method: Max exon 5 alternative splicing analysis was performed as described (22). Alternative splicing was assayed using quantitative RT-PCR using primers designed to constitutive exons flanking alternative exons. Primers were: Max (85F) 5′-[…]-3′; MAX(85R) 5′-[…]-3′. Reverse primers were 32P end-labeled and PCR reactions were amplified for 22 cycles and subsequently resolved by denaturing PAGE and imaged.
(B) Schematic diagrams of the dicistronic constructs used in this study. Constructs used are pRF, pRCD1F, which contains the human cyclin D1 IRES, pRmycF, containing the human c-myc IRES, pRp27F, containing the human p27Kip1 IRES and pRECMVF, containing the IRES from encephalomyocarditis virus. (C) Relative Renilla and firefly luciferase activities obtained from LN229 GBM cells transfected with the indicated constructs in the absence or presence of the inhibitor C11. The mean and +SD are shown for three independent experiments. […] (D) RNA-pull down assays utilizing biotinylated cyclin D1 or c-MYC IRES RNAs. Cytoplasmic extracts of LN229 cells treated with C11 (50 nM) as indicated were incubated with biotinylated cyclin D1 or c-MYC IRES RNAs and precipitated with streptavidin-Sepharose beads. Input and bound fractions were analyzed by immunoblotting using hnRNP A1 antibodies. […] Bound CCND1 or c-MYC RNAs were detected via RT-PCR. […]

[5] = tested on: subcutaneous LN229 tumors
Method: TUNEL staining of tumor sections was performed using the TACSXL DAB In Situ Apoptosis Detection kit (Trevigen) according to the manufacturer's instructions (19). […] Xenograft Studies-Xenografts of LN229 cells were performed in female C.B.-17-scid (Taconic) mice as previously described (14). Tumors were harvested at autopsy for Western blot analysis. Sections of paraffin-embedded tumors on slides were processed for immunohistochemistry as previously described (14,19). Statistical analysis was done with Student's t test and ANOVA models using Systat 13 (Systat Software, Chicago, Ill.). P values of less the 0.05 were considered significant.
Left panel, apoptotic cells were identified by TUNEL assays of sections prepared from harvested tumors at day 12 following initiation of treatment regimens. Data are expressed as the number of positive apoptotic bodies divided by high power field (hpf; 10-12 hpf/tumor). Values are means+S.D., *, P<0.05.

c-MYC mRNA = assay: Polysome analysis of xenografted LN229 tumors, c-MYC mRNA
Method: (§5) Cells were lysed in buffer containing 100 μg/ml cycloheximide at 4° C. Following removal of mitochondria and nuclei, supernatants were layered onto 15-50% sucrose gradients and centrifuged at 38,000 rpm for 2 h at 4° C. in an SW40 rotor (Beckman Instruments). Gradients were fractionated into 11 1-ml fractions using a density gradient fractionator (Brandel Instruments). The profiles of the gradients were monitored at 260 nm, and RNAs from individual fractions were pooled into a nonribosomal/monosomal pool and a polysomal pool. These RNAs (100 ng) were used in real time quantitative RT-PCR analysis for the indicated transcripts.
(§6) Tumor extracts were subjected to sucrose density gradient centrifugation, fractionated and pooled into nonribosomal, monosomal fraction (N, white bars) and a polysomal fraction (P, black bars). Purified RNAs were used in real-time qRT-PCR analysis to determine the distributions of cyclin D1, c-MYC and actin mRNAs across the gradients. […] Means and +S.D. values are shown for quadruplicate RT-PCR measurements. *, P<0.05.
(§7) Polysomes were separated via sucrose density gradient sedimentation and fractionated into heavy polysomal and nonribosomal/monosomal fractions.

actin mRNA = assay: Polysome analysis of xenografted LN229 tumors, actin mRNA; conditions: monotherapy
Method: as §5, §6, §7

[6] = combination PP242 50 mg/kg/d + IRES-J007 20 mg/kg/d

| Structure (SMILES) | IRES-mediated initiation from p27Kip1 IRES (human p27Kip1 IRES) | IRES-mediated initiation from ECMV IRES [1] | CI (combination index) at ED50 ratio of 1:100 ([2]; C11 at 10 and 100 nM with PP242, 48 h, LN229, LN18, LN428 and SF763) | inhibition of cell growth ([2]; inhibitor alone, concentrations up to 10 μM, 48 h, several GBM lines) | percentage of cells undergoing apoptosis ([3]; combined with PP242, four GBM lines) | G1 arrest ([3]; cotreatment with PP242, four GBM lines) | actin mRNA distribution ([4]; 50 nM) | polysome distribution of cyclin D1 and c-MYC mRNA ([4]; 50 nM) | cyclin D1 or c-MYC steady-state mRNA levels ([4]; total monosomal/nonribosomal plus polysomal mRNA) | Delta Max splicing (Delta Max splicing) | overall survival compared to either monotherapy [5, 6] | tumor growth delay [5, 6] [days] | inhibition of tumor growth at end of dosing period ([5]; combination PP242 50 mg/kg/d + IRES-J007 20 mg/kg/d, ten consecutive days) [%] | cyclin D1 and c-MYC protein levels in tumors ([5]; combination therapy) | TUNEL staining of tumor sections (apoptosis) ([5]; combination therapy, tumors harvested at day 12) | tumor growth vs double vehicle controls ([5]; monotherapy IRES-J007 20 mg/kg/d, ten consecutive days) | c-MYC mRNA translational efficiency (c-MYC mRNA; IRES-J007 monotherapy) | c-MYC mRNA polysomal (c-MYC mRNA; PP242 and IRES-J007 cotherapy) [%] | actin mRNA polysomal distribution / translational efficiency (actin mRNA) |
| --- | --- | --- | --- | --- | --- | --- | --- | --- | --- | --- | --- | --- | --- | --- | --- | --- | --- | --- | --- |
| COc1ccc(CN2C(=O)C(Cl)=C(Cl)C2=O)c(OC)c1 [Compound C11, reference compound] | did not affect | did not affect | 0.5 | No significant inhibition of cell growth | further potentiated the percentage of cells undergoing apoptosis | markedly stimulated G1 arrest | unaffected | significant shift in both cyclin D1 and c-MYC mRNA to monosomal/nonribosomal fractions | did not appear to alter | did not alter |  |  |  |  |  |  |  |  |  |
| COc1ccc(CN2C(=O)c3ccccc3C2=O)c(OC)c1 [IRES-J007, 2-((2,4-Dimethoxyphenyl)methyl)isoindoline-1,3-dione] |  |  |  |  |  |  |  |  |  |  | significantly extended | 20.5 | 93 | Marked reductions | significant staining | did not differ significantly | significant reduction | 3 | unaffected |
